Literature values as cited in US9937154B2, “Use of telmisartan to prevent and treat graft versus host disease and other alloimmune and autoimmune diseases” (Hackensack University Medical Center, priority 2015, dated 2018).
Read-outs that look alike come from different tables or passages of the source.

Tests used:
rat colitis = settings: chemically induced acute colitis, cited from earlier work
[1] = tested on: patients treated with MICARDIS; settings: cited from earlier work
lymphocyte chemotaxis = settings: in part SDF-1 induced chemotaxis; cited from earlier work
ROCK = settings: cited from earlier work
[2] = cited from earlier work
[3] = tested on: plasma proteins, mainly albumin and orosomucoid; settings: cited from earlier work
cytochrome P450 enzymes = settings: cited from earlier work
CYP2C19 = CYP2C19 (Homo sapiens, UniProt P33261); settings: in vitro; cited from earlier work
CYP2C19, sequence (P33261 whole entry): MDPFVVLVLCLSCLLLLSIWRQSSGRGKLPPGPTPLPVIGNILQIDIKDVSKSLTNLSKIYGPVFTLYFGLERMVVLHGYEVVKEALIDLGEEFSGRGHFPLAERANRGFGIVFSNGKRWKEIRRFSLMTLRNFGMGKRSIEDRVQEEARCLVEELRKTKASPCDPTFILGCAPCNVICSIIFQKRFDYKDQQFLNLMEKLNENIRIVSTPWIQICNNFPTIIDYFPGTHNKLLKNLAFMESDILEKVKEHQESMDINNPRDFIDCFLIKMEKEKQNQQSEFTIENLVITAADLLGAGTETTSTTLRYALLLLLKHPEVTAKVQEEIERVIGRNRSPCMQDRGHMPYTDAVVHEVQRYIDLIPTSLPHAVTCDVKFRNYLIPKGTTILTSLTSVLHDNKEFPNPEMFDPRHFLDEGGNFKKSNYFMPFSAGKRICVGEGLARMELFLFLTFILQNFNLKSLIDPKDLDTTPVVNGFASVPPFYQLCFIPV

[4] = 80 or 160 mg per day; cited from earlier work
[5] = tested on: patients with mild to moderate hypertension; settings: cited from earlier work
[6] = tested on: corneal neovascularization; settings: corneal systems; cited from earlier work
[7] = cited from earlier work; remark: listed apart in the source
[8] = tested on: Tregs:autoreactive Th17 cells; settings: cited from earlier work

## CCCc1nc2c(C)cc(-c3nc4ccccc4n3C)cc2n1Cc1ccc(-c2ccccc2C(=O)O)cc1 [Telmisartan, telmisartan]
Rat colitis; listed as telmisartan
  effect on colitis: anti-inflammatory effects
Rat colitis
  effect on colitis: protective effect against rat colitis
[1]; 6 placebo-controlled trials, identical to placebo
  incidence of cough: 1.6%
[1]; n = 1455
  incidence of back pain: 3%
  incidence of diarrhea: 3%
  incidence of pharyngitis: 1%
  incidence of sinusitis: 3%
  incidence of upper respiratory tract infection: 7%
[1]; of 1455 patients, placebo-controlled clinical trials
  discontinuation of therapy because of adverse events: 2.8%
Lymphocyte chemotaxis
  lymphocyte chemotaxis: abrogate lymphocyte chemotaxis
ROCK
  potency as ROCK inhibitor compared with Y-27632: as potent an inhibitor of ROCK as Y-27632
[2]; intravenous administration
  amount found in urine: 0.91 % of total radioactivity
[2]; intravenous or oral 14C-labeled telmisartan
  administered dose eliminated unchanged in feces via biliary excretion: > 97%
[2]; oral administration
  amount found in urine: 0.49 % of total radioactivity
[3]
  bound to plasma proteins: > 99.5%
Cytochrome P450 enzymes
  metabolism by the cytochrome P450 system: not metabolized
Cytochrome P450 enzymes; except CYP2C19
  effects in vitro on cytochrome P450 enzymes: no effects
CYP2C19
  inhibition of CYP2C19: some inhibition
[4]
  incidence of reported poor tolerability: 0.5%
[5]; 20 mg once daily
  DBP reduction from baseline after placebo subtraction: ~6 mm Hg
  SBP reduction from baseline after placebo subtraction: 6-8 mm Hg
[5]; 40 mg once daily
  DBP reduction from baseline after placebo subtraction: 6-8 mm Hg
  SBP reduction from baseline after placebo subtraction: 9-13 mm Hg
[5]; 80 mg once daily
  DBP reduction from baseline after placebo subtraction: 7-8 mm Hg
  SBP reduction from baseline after placebo subtraction: 12-13 mm Hg
[5]; after initiation of treatment
  time to maximal blood pressure reduction: ~4 weeks
[5]; after the first dose, all controlled trials
  incidence of symptomatic orthostasis: 0.04%
[6]
  neovascularization: prevent neovascularization
[7]; 40 mg tablet
  reduction in AUC by food: about 6%
[7]; 160 mg dose
  reduction in AUC by food: about 20%
[7]; in vivo
  terminal elimination half-life: approximately 24 hours
  volume of distribution: approximately 500 liters
[8]
  ratio of protective Tregs:autoreactive Th17 cells: increase the ratio
